Where “and” joins values, the source holds several entries; their conditions need not be identical. Identical values can stand only once. Toxic doses and inconclusive results are not listed.
Test system: P388 leukemia ip, CD2F1 mice, survival T/C
Test: NCI In Vivo Anticancer Drug Screen. Data for tumor model P388 Leukemia (intraperitoneal) in CD2F1 (CDF1) mice
Conditions: endpoint: median survival time, higher = longer survival
How it was run: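 Mice carrying the transplanted tumor received test compound or vehicle. Survival was recorded in each group, and the value is the treated-group measurement divided by that of the vehicle-treated control group.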

[1] = dose: 6.25 mg/kg/injection, schedule: Q01DX009 (ip), vehicle: saline with Tween-80
[2] = dose: 50.0 mg/kg/injection, schedule: Q01DX009 (ip), vehicle: Klucel (hydroxypropylcellulose) (HPC)
[3] = dose: 25.0 mg/kg/injection, schedule: Q01DX009 (ip), vehicle: other
[4] = dose: 50.0 mg/kg/injection, schedule: Q01DX009 (ip), vehicle: other
[5] = dose: 100.0 mg/kg/injection, schedule: Q01DX009 (ip), vehicle: other
[6] = dose: 200.0 mg/kg/injection, schedule: Q01DX009 (ip), vehicle: other

`CC1(C)N=C(N)N=C(N)N1c1ccc(CCCCc2ccc(S(=O)(=O)F)cc2Cl)c(Cl)c1` was tested, and the T/C (dose: 0.13 mg/kg/injection, schedule: Q03HX016 (ip), vehicle: other) was 107 % of control, the T/C (dose: 0.25 mg/kg/injection, schedule: Q03HX016 (ip), vehicle: other) was 116 % of control and the T/C (dose: 0.5 mg/kg/injection, schedule: Q03HX016 (ip), vehicle: other) was 124 % of control. The T/C (dose: 1.0 mg/kg/injection, schedule: Q01DX005 (ip), vehicle: other) was 111 % of control, the T/C (dose: 1.98 mg/kg/injection, schedule: Q01DX009 (ip), vehicle: saline with Tween-80) was 165 % of control and the T/C (dose: 2.0 mg/kg/injection, schedule: Q01DX005 (ip), vehicle: other) was 120 % of control. For the same compound, the T/C (dose: 2.0 mg/kg/injection, schedule: Q04DX002 (ip), vehicle: other) was 109 % of control, the T/C (dose: 2.82 mg/kg/injection, schedule: Q01DX009 (ip), vehicle: saline with Tween-80) was 168 % of control and the T/C (dose: 3.89 mg/kg/injection, schedule: Q01DX009 (ip), vehicle: Klucel (hydroxypropylcellulose) (HPC)) was 152 % of control and 163 % of control. The T/C (dose: 4.0 mg/kg/injection, schedule: Q01DX005 (ip), vehicle: other) was 121 % of control, the T/C (dose: 4.0 mg/kg/injection, schedule: Q04DX002 (ip), vehicle: other) was 118 % of control and the T/C (dose: 4.03 mg/kg/injection, schedule: Q01DX009 (ip), vehicle: saline with Tween-80) was 176 % of control. For the same compound, the T/C (dose: 5.76 mg/kg/injection, schedule: Q01DX009 (ip), vehicle: saline with Tween-80) was 176 % of control, the T/C (dose: 6.25 mg/kg/injection, schedule: Q01DX009 (ip), vehicle: distilled water + Tween-80) was 155 % of control and the T/C [1] was 163 % of control. For the same compound, the T/C (dose: 6.48 mg/kg/injection, schedule: Q01DX009 (ip), vehicle: Klucel (hydroxypropylcellulose) (HPC)) was 164 % of control, the T/C (dose: 8.0 mg/kg/injection, schedule: Q01DX005 (ip), vehicle: other) was 119 % of control and the T/C (dose: 8.0 mg/kg/injection, schedule: Q04DX002 (ip), vehicle: other) was 116 % of control. For the same compound, the T/C (dose: 8.23 mg/kg/injection, schedule: Q01DX009 (ip), vehicle: saline with Tween-80) was 197 % of control, the T/C (dose: 8.64 mg/kg/injection, schedule: Q01DX005 (ip), vehicle: Klucel (hydroxypropylcellulose) (HPC)) was 156 % of control and the T/C (dose: 10.8 mg/kg/injection, schedule: Q01DX009 (ip), vehicle: Klucel (hydroxypropylcellulose) (HPC)) was 166 % of control and 182 % of control. For the same compound, the T/C (dose: 11.76 mg/kg/injection, schedule: Q01DX009 (ip), vehicle: saline with Tween-80) was 212 % of control, the T/C (dose: 12.5 mg/kg/injection, schedule: Q01DX009 (ip), vehicle: distilled water + Tween-80) was 155 % of control and the T/C (dose: 16.0 mg/kg/injection, schedule: Q01DX005 (ip), vehicle: other) was 118 % of control. For the same compound, the T/C (dose: 16.0 mg/kg/injection, schedule: Q04DX002 (ip), vehicle: other) was 106 % of control, the T/C (dose: 16.8 mg/kg/injection, schedule: Q01DX009 (ip), vehicle: other) was 100 % of control and the T/C (dose: 16.8 mg/kg/injection, schedule: Q01DX009 (ip), vehicle: saline with Tween-80) was 250 % of control. For the same compound, the T/C (dose: 18.0 mg/kg/injection, schedule: Q01DX009 (ip), vehicle: Klucel (hydroxypropylcellulose) (HPC)) was 163 % of control and 214 % of control, the T/C (dose: 24.0 mg/kg/injection, schedule: Q01DX005 (ip), vehicle: Klucel (hydroxypropylcellulose) (HPC)) was 164 % of control and the T/C (dose: 24.0 mg/kg/injection, schedule: Q01DX009 (ip), vehicle: saline with Tween-80) was 256 % of control. For the same compound, the T/C (dose: 25.0 mg/kg/injection, schedule: Q01DX009 (ip), vehicle: distilled water + Tween-80) was 160 % of control, the T/C (dose: 25.0 mg/kg/injection, schedule: Q01DX009 (oral), vehicle: saline with Tween-80) was 102 % of control and the T/C (dose: 30.0 mg/kg/injection, schedule: Q01DX009 (ip), vehicle: Klucel (hydroxypropylcellulose) (HPC)) was 163 % of control and 236 % of control. The T/C (dose: 32.0 mg/kg/injection, schedule: Q04DX002 (ip), vehicle: other) was 111 % of control, the T/C (dose: 34.28 mg/kg/injection, schedule: Q01DX009 (ip), vehicle: saline with Tween-80) was 228 % of control and the T/C (dose: 40.0 mg/kg/injection, schedule: Q01DX005 (ip), vehicle: Klucel (hydroxypropylcellulose) (HPC)) was 172 % of control. For the same compound, the T/C [2] was 87 % of control, the T/C (dose: 50.0 mg/kg/injection, schedule: Q01DX009 (oral), vehicle: saline with Tween-80) was 102 % of control and the T/C (dose: 75.0 mg/kg/injection, schedule: Q01DX009 (ip), vehicle: saline with Tween-80) was 195 % of control. For the same compound, the T/C (dose: 89.0 mg/kg/injection, schedule: Q04DX003 (ip), vehicle: saline with Tween-80) was 173 % of control, the T/C (dose: 100.0 mg/kg/injection, schedule: Q01DX009 (oral), vehicle: saline with Tween-80) was 107 % of control and the T/C (dose: 110.0 mg/kg/injection, schedule: Q01DX009 (ip), vehicle: saline with Tween-80) was 86 % of control. For the same compound, the T/C (dose: 133.0 mg/kg/injection, schedule: Q04DX003 (ip), vehicle: saline with Tween-80) was 188 % of control, the T/C (dose: 200.0 mg/kg/injection, schedule: Q01DX009 (oral), vehicle: saline with Tween-80) was 105 % of control and the T/C (dose: 200.0 mg/kg/injection, schedule: Q04DX003 (ip), vehicle: saline with Tween-80) was 307 % of control. For the same compound, the T/C (dose: 400.0 mg/kg/injection, schedule: Q01DX009 (oral), vehicle: saline with Tween-80) was 99 % of control.

`CN(C)CC[CH2][Sn]([CH3])([c]1ccccc1)[c]1ccccc1` was tested, and the T/C (dose: 6.25 mg/kg/injection, schedule: Q01DX009 (ip), vehicle: suspension in saline) was 88 % of control, the T/C (dose: 12.5 mg/kg/injection, schedule: Q01DX009 (ip), vehicle: suspension in saline) was 101 % of control and the T/C (dose: 25.0 mg/kg/injection, schedule: Q01DX009 (ip), vehicle: suspension in saline) was 103 % of control.

With `O=C(CN1CCOCC1)Nc1cccc(C(F)(F)F)c1` the T/C (dose: 100.0 mg/kg/injection, schedule: Q01DX009 (ip), vehicle: saline with Tween-80) was 110 % of control, the T/C (dose: 200.0 mg/kg/injection, schedule: Q01DX009 (ip), vehicle: saline with Tween-80) was 100 % of control and the T/C (dose: 400.0 mg/kg/injection, schedule: Q01DX009 (ip), vehicle: saline with Tween-80) was 110 % of control.

With `CC(Br)CN(CC(C)Br)c1ccc(-c2ccccc2)cc1` (stereo not drawn) the T/C (dose: 12.5 mg/kg/injection, schedule: Q01DX009 (ip), vehicle: Klucel (hydroxypropylcellulose) (HPC)) was 154 % of control, the T/C (dose: 25.0 mg/kg/injection, schedule: Q01DX009 (ip), vehicle: Klucel (hydroxypropylcellulose) (HPC)) was 164 % of control and the T/C [2] was 176 % of control and 181 % of control. The T/C (dose: 100.0 mg/kg/injection, schedule: Q01DX009 (ip), vehicle: Klucel (hydroxypropylcellulose) (HPC)) was 184 % of control.

In the case of `C=C1C(=O)OC2CC(C)/C=C\C(=O)C(C)(O)C(O)C(O)C12` (stereo not drawn) (tested in a mixture with another compound), the T/C (dose: 12.5 mg/kg/injection, schedule: Q01DX001 (ip), vehicle: Klucel (hydroxypropylcellulose) (HPC)) is reported as 113 % of control and the T/C (dose: 25.0 mg/kg/injection, schedule: Q01DX001 (ip), vehicle: Klucel (hydroxypropylcellulose) (HPC)) is reported as 105 % of control.

In the case of `COc1cc2c(=O)n(C)c3ccccc3c2cc1OC`, the T/C [3] is reported as 91 % of control, the T/C [4] is reported as 90 % of control and the T/C [5] is reported as 91 % of control. The T/C [6] was 93 % of control and the T/C (dose: 400.0 mg/kg/injection, schedule: Q01DX009 (ip), vehicle: other) was 99 % of control.

For `CCOC(=O)c1ccc(NC(=O)N2CCCCC2C)cc1` (stereo not drawn), the T/C (dose: 60.0 mg/kg/injection, schedule: Q01DX005 (ip), vehicle: Klucel (hydroxypropylcellulose) (HPC)) was 104 % of control, the T/C (dose: 120.0 mg/kg/injection, schedule: Q01DX005 (ip), vehicle: Klucel (hydroxypropylcellulose) (HPC)) was 89 % of control and the T/C (dose: 240.0 mg/kg/injection, schedule: Q01DX005 (ip), vehicle: Klucel (hydroxypropylcellulose) (HPC)) was 97 % of control.

`O=C1/C(=C/c2cccnc2)Cc2ccccc21` was tested, and the T/C (dose: 12.5 mg/kg/injection, schedule: Q01DX009 (ip), vehicle: other) was 103 % of control, the T/C [3] was 103 % of control and the T/C [4] was 99 % of control. The T/C [5] was 99 % of control and the T/C [6] was 94 % of control.

With `CCC1CCCC[N+]1(C)[B-](F)(F)F` (stereo not drawn) the T/C (dose: 50.0 mg/kg/injection, schedule: Q01DX005 (ip), vehicle: saline) was 105 % of control and the T/C (dose: 100.0 mg/kg/injection, schedule: Q01DX005 (ip), vehicle: saline) was 107 % of control.

With `CCCCCCCCCCCCCCCC[N+](C)(C)CCNC(=O)C1CSC(C)(C)N1C=O` (stereo not drawn) the T/C (dose: 12.5 mg/kg/injection, schedule: Q01DX009 (ip), vehicle: saline) was 106 % of control and the T/C (dose: 25.0 mg/kg/injection, schedule: Q01DX009 (ip), vehicle: saline) was 97 % of control.

For `CCC12NC(=O)NC1(C)NC(=O)N2` (stereo not drawn), the T/C [1] was 91 % of control, the T/C (dose: 12.5 mg/kg/injection, schedule: Q01DX009 (ip), vehicle: saline with Tween-80) was 91 % of control and the T/C (dose: 16.5 mg/kg/injection, schedule: Q01DX009 (ip), vehicle: saline with Tween-80) was 100 % of control.

— PubChem BioAssay AID330 (DTP/NCI, 2004)
